ChEMBL document CHEMBL1201862, “PubChem BioAssay data set” (2004)
The source made the active and inactive calls. Rule as the data show it: actives have a measured IC50 and inactives only a lower limit.

Molecular target: Envelope glycoprotein gp160 (Human immunodeficiency virus 1, UniProt Q6QLK5)
Test: inhibitors of HIV fusion peptide binding, primary screen, biochemical, uHTS, fluorescence dequenching (AID 1986)

Sequence of Envelope glycoprotein gp160 (Q6QLK5 whole entry, the tested form may be a part): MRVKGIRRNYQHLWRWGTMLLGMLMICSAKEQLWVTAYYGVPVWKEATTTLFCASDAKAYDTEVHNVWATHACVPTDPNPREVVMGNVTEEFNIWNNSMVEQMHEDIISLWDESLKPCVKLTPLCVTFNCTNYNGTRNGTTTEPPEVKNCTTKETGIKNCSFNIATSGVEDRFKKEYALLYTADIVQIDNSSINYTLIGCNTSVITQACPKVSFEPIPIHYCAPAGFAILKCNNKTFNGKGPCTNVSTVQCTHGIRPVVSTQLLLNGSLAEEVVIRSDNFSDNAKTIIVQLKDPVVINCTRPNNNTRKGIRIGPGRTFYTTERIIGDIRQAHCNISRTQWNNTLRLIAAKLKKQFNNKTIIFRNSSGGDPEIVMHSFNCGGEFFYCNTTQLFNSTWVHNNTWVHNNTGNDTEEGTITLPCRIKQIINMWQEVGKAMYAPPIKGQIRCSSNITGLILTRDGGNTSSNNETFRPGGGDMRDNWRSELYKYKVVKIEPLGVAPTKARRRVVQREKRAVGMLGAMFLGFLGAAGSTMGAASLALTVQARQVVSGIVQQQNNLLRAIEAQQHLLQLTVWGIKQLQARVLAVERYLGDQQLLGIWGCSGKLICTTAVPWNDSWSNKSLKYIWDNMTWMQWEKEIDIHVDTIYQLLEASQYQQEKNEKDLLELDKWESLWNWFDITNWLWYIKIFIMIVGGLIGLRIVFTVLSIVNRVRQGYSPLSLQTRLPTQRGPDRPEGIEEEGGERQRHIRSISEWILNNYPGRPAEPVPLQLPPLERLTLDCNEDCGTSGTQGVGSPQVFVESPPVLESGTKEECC

Question: With Oc1c(Br)cc(Br)c(/C=N/n2c(S)nnc2-c2ccccc2)c1Br as the compound, how does the IC50 read?
Answer: 12 µM (active)
